Test results from the NIST ThermoML archive (doi:10.1021/acs.jced.8b00537).

Assay: xn = mol fraction of the nth substance listed
Settings: 100 kPa, Liquid; for viscosity: Capillary tube (Ostwald / Ubbelohde) method; for speed of sound: Frequency=3 MHz, Single path-length method; for mass density: Vibrating tube method

CC[S+](CC)CC.O=S(=O)([N-]S(=O)(=O)C(F)(F)F)C(F)(F)F [triethylsulfonium bis((trifluoromethyl)sulfonyl)imide] + CCCO
Settings	mass density [kg/m3]	speed of sound [m/s]	viscosity [mPa·s]
293.15 K, x1 = 0.04926	910	1205.5	2.874
293.15 K, x1 = 0.1003	996	1194.3	4.059
293.15 K, x1 = 0.1993	1120	1195	5.998
293.15 K, x1 = 0.3008	1209	1203.1	7.862
293.15 K, x1 = 0.3991	1273	1212.3	10.68
293.15 K, x1 = 0.5023	1324	1222.2	12.28
293.15 K, x1 = 0.5987	1363	1228.5	15.93
293.15 K, x1 = 0.6987	1395	1235.2	19.92
293.15 K, x1 = 0.7947	1421	1240.6	24.95
293.15 K, x1 = 0.903	1446	1245.8	31.64
293.15 K, x1 = 1	1465	1252.9	39.64
298.15 K, x1 = 0.04926	906	1190.3	2.515
298.15 K, x1 = 0.1003	992	1179.9	3.438
298.15 K, x1 = 0.1993	1115	1181.8	5.082
298.15 K, x1 = 0.3008	1204	1190.5	6.704
298.15 K, x1 = 0.3991	1268	1200.2	9.087
298.15 K, x1 = 0.5023	1319	1210.3	10.45
298.15 K, x1 = 0.5987	1358	1217	13.49
298.15 K, x1 = 0.6987	1390	1223.8	16.79
298.15 K, x1 = 0.7947	1416	1229.4	20.88
298.15 K, x1 = 0.903	1441	1234.8	26.25
298.15 K, x1 = 1	1460	1242.5	32.43
303.15 K, x1 = 0.04926	901	1174.8	2.216
303.15 K, x1 = 0.1003	987	1165.6	2.978
303.15 K, x1 = 0.1993	1111	1168.7	4.379
303.15 K, x1 = 0.3008	1199	1178.1	5.78
303.15 K, x1 = 0.3991	1263	1188.2	7.814
303.15 K, x1 = 0.5023	1314	1198.7	8.985
303.15 K, x1 = 0.5987	1353	1205.5	11.56
303.15 K, x1 = 0.6987	1386	1212.6	14.33
303.15 K, x1 = 0.7947	1411	1218.3	17.71
303.15 K, x1 = 0.903	1436	1223.9	22.1
303.15 K, x1 = 1	1455	1232.4	26.92
308.15 K, x1 = 0.04926	897	1159.5	1.962
308.15 K, x1 = 0.1003	983	1151.3	2.609
308.15 K, x1 = 0.1993	1106	1155.7	3.816
308.15 K, x1 = 0.3008	1194	1165.8	5.034
308.15 K, x1 = 0.3991	1258	1176.3	6.787
308.15 K, x1 = 0.5023	1310	1187.1	7.806
308.15 K, x1 = 0.5987	1348	1194.2	10.01
308.15 K, x1 = 0.6987	1381	1201.5	12.35
308.15 K, x1 = 0.7947	1407	1207.4	15.19
308.15 K, x1 = 0.903	1431	1213.1	18.81
308.15 K, x1 = 1	1450	1222.4	22.64
313.15 K, x1 = 0.04926	893	1144.2	1.747
313.15 K, x1 = 0.1003	978	1137.2	2.304
313.15 K, x1 = 0.1993	1101	1142.8	3.354
313.15 K, x1 = 0.3008	1190	1153.5	4.421
313.15 K, x1 = 0.3991	1253	1164.5	5.945
313.15 K, x1 = 0.5023	1305	1175.6	6.842
313.15 K, x1 = 0.5987	1343	1183	8.742
313.15 K, x1 = 0.6987	1376	1190.5	10.75
313.15 K, x1 = 0.7947	1402	1196.6	13.15
313.15 K, x1 = 0.903	1426	1202.5	16.18
313.15 K, x1 = 1	1446	1212.7	19.24
318.15 K, x1 = 0.04926	–	1129	1.563
318.15 K, x1 = 0.1003	–	1123.1	2.049
318.15 K, x1 = 0.1993	–	1129.9	2.972
318.15 K, x1 = 0.3008	–	1141.3	3.913
318.15 K, x1 = 0.3991	–	1152.7	5.25
318.15 K, x1 = 0.5023	–	–	6.044
318.15 K, x1 = 0.5987	–	–	7.698
318.15 K, x1 = 0.6987	–	–	9.441
318.15 K, x1 = 0.7947	–	–	11.49
318.15 K, x1 = 0.903	–	–	14.06
318.15 K, x1 = 1	–	–	16.53
